row,SMILES,melting point
1,"CC(=O)OC[C@H]1O[C@@H](Cc2ccc([C@@H]3[C@@H](CCCc4ccc(F)cc4)C(=O)N3c3ccc(F)cc3)cc2)[C@H](OC(C)=O)[C@@H](OC(C)=O)[C@@H]1OC(C)=O (relative stereo) [Compound 3, (3S,2R,4R,5R,6R)-2-[(4-{(4S*,3R*)-1-(4-Fluorophenyl)-3-[3-(4-fluorophenyl)propyl]-2-oxoazetidine-4-yl}phenyl)methyl]-4,5-diacetyloxy-6-(acetoxymethyl)perhydro-2H-pyran-3-ylacetate]",56 to 58 °C
2,"COc1ccc(N2C(=O)[C@H](CCCc3ccc(F)cc3)[C@H]2c2ccc(C[C@@H]3O[C@H](COC(C)=O)[C@@H](OC(C)=O)[C@H](OC(C)=O)[C@H]3OC(C)=O)cc2)cc1 (relative stereo) [Compound 6, (3S,2R,4R,5R,6R)-2-[(4-{(4S*,3R*)-1-(4-Methoxyphenyl)-3-[3-(4-fluorophenyl)propyl]-2-oxoazetidine-4-yl}phenyl)methyl]-4,5-diacetyloxy-6-(acetoxymethyl)perhydro-2H-pyran-3-ylacetate]",60 to 62 °C
3,"CC(=O)OC[C@H]1O[C@@H](Cc2ccc([C@@H]3[C@@H](CCCc4ccc(F)cc4)C(=O)N3c3ccc(C)cc3)cc2)[C@H](OC(C)=O)[C@@H](OC(C)=O)[C@@H]1OC(C)=O (relative stereo) [Compound 8, (3S,2R,4R,5R,6R)-2-[(4-{(4S*,3R*)-1-(4-Methylphenyl)-3-[3-(4-fluorophenyl)propyl]-2-oxoazetidine-4-yl}phenyl)methyl]-4,5-diacetyloxy-6-(acetoxymethyl)perhydro-2H-pyran-3-ylacetate]",56 to 58 °C
4,"O=C1[C@H](CCCc2ccc(F)cc2)[C@@H](c2ccc(CC3O[C@H](CO)[C@@H](O)[C@H](O)[C@H]3O)cc2)N1c1ccccc1 (relative stereo) [Compound 9, (4S*,3R*)-4-(4-{[(5S,2R,3R,4R,6R)-3,4,5-Trihydroxy-6-(hydroxymethyl)perhydro-2H-pyran-2-yl]methyl}phenyl)-1-phenyl-3-[3-(4-fluorophenyl)propyl]azetidine-2-one]",84 to 86 °C
5,"CC(=O)OC[C@H]1O[C@@H](Cc2ccc([C@@H]3[C@@H](CCCc4ccc(F)cc4)C(=O)N3c3ccccc3)cc2)[C@H](OC(C)=O)[C@@H](OC(C)=O)[C@@H]1OC(C)=O (relative stereo) [Compound 10, (3S,2R,4R,5R,6R)-2-[(4-{(4S*,3R*)-1-phenyl-3-[3-(4-fluorophenyl)propyl]-2-oxoazetidine-4-yl}phenyl)methyl]4,5-diacetyloxy-6-(acetoxymethyl)perhydro-2H-pyran-3-ylacetate]",60 to 61 °C
6,"CCOC(=O)C(C)(C)Oc1ccc(N2C(=O)[C@H](CCCc3ccc(F)cc3)[C@H]2c2ccc(C[C@@H]3O[C@H](CO)[C@@H](O)[C@H](O)[C@H]3O)cc2)cc1 (relative stereo) [Compound 18, 2-{4-[(4S*,3R*)-4-{[(5S,2R,3R,4R,6R)-3,4,5-Trihydroxy-6-(hydroxymethyl)perhydro-2H-pyran-2-yl]methyl}phenyl-3-[3-(4-fluorophenyl)propyl]-2-oxoazetidinyl]phenoxy}-2-methylpropionic acid ethyl ester]",73 to 74 °C

# Other lines, results leading:
row,melting point,SMILES
1,76 to 78 °C,"O=C1[C@H](CCCc2ccc(F)cc2)[C@@H](c2ccc(C[C@@H]3O[C@H](CO)[C@@H](O)[C@H](O)[C@H]3O)cc2)N1c1ccc(Cl)cc1 (relative stereo) [Compound 4, (4S*,3R*)-4-(4-{[(2S,5S,3R,4R,6R)-3,4,5-Trihydroxy-6-(hydroxymethyl)perhydro-2H-pyran-2-yl]methyl}phenyl)-1-(4-chlorophenyl)-3-[3-(4-fluorophenyl)propyl]azetidine-2-one]"
2,73 to 75 °C,"COc1ccc(N2C(=O)[C@H](CCCc3ccc(F)cc3)[C@H]2c2ccc(CC3O[C@H](CO)[C@@H](O)[C@H](O)[C@H]3O)cc2)cc1 (relative stereo) [Compound 5, (4S*,3R*)-4-(4-{[(5S,2R,3R,4R,6R)-3,4,5-Trihydroxy-6-(hydroxymethyl)perhydro-2H-pyran-2-yl]methyl}phenyl)-1-(4-methoxyphenyl)-3-[3-(4-fluorophenyl)propyl]azetidine-2-one]"
3,80 to 82 °C,"Cc1ccc(N2C(=O)[C@H](CCCc3ccc(F)cc3)[C@H]2c2ccc(CC3O[C@H](CO)[C@@H](O)[C@H](O)[C@H]3O)cc2)cc1 (relative stereo) [Compound 7, (4S*,3R*)-4-(4-{[(5S,2R,3R,4R,6R)-3,4,5-Trihydroxy-6-(hydroxymethyl)perhydro-2H-pyran-2-yl]methyl}phenyl)-1-(4-methylphenyl)-3-[3-(4-fluorophenyl)propyl]azetidine-2-one]"
4,74 to 75 °C,"O=C1[C@H](CCCc2ccccc2)[C@@H](c2ccc(CC3O[C@H](CO)[C@@H](O)[C@H](O)[C@H]3O)cc2)N1c1ccc(F)cc1 (relative stereo) [Compound 11, (4S*,3R*)-4-(4-{[(5S,2R,3R,4R,6R)-3,4,5-Trihydroxy-6-(hydroxymethyl)perhydro-2H-pyran-2-yl]methyl}phenyl)-1-(4-fluorophenyl)-3-[3-(phenyl)propyl]azetidine-2-one]"
5,65 to 67 °C,"O=C1[C@H](CCOc2ccc(F)cc2)[C@@H](c2ccc(CC3O[C@H](CO)[C@@H](O)[C@H](O)[C@H]3O)cc2)N1c1ccc(F)cc1 (relative stereo) [Compound 12, (4S*,3R*)-4-(4-{[(5S,2R,3R,4R,6R)-3,4,5-Trihydroxy-6-(hydroxymethyl)perhydro-2H-pyran-2-yl]methyl}phenyl)-1-(4-fluorophenyl)-3-[2-(4-fluorophenoxy)ethyl]azetidine-2-one]"
6,61 to 62 °C,"O=C1[C@H](CCCc2ccc(F)cc2)[C@@H](c2ccc(OCC3O[C@H](CO)[C@@H](O)[C@H](O)[C@H]3O)cc2)N1c1ccc(F)cc1 (relative stereo) [Compound 14, (4S*,3R*)-4-(4-{[(4S,5S,2R,3R,6R)-3,4,5-Trihydroxy-6-(hydroxymethyl)perhydro-2H-pyran-2-yl]methoxy}phenyl)-1-(4-fluorophenyl)-3-[3-(4-fluorophenyl)propyl]azetidine-2-one]"
7,73 to 75 °C,"O=C1[C@H](CCCc2ccc(F)cc2)[C@@H](c2ccc(OCC3O[C@H](CO)[C@@H](O)[C@H](O)[C@H]3O)cc2)N1Cc1ccccc1 (relative stereo) [Compound 16, (4S*,3R*)-4-(4-{[(4S,5S,2R,3R,6R)-3,4,5-Trihydroxy-6-(hydroxymethyl)perhydro-2H-pyran-2-yl]methoxy}phenyl)-1-phenylmethyl-3-[3-(4-fluorophenyl)propyl]azetidine-2-one]"
8,170 to 172 °C,"CC(C)(Oc1ccc(N2C(=O)[C@H](CCCc3ccc(F)cc3)[C@H]2c2ccc(C[C@@H]3O[C@H](CO)[C@@H](O)[C@H](O)[C@H]3O)cc2)cc1)C(=O)O (relative stereo) [Compound 19, 2-{4-[(4S*,3R*)-4-{[(5S,2R,3R,4R,6R)-3,4,5-Trihydroxy-6-(hydroxymethyl)perhydro-2H-pyran-2-yl]methyl}phenyl-3-[3-(4-fluorophenyl)propyl]-2-oxoazetidinyl]phenoxy}-2-methylpropionic acid]"
